# Values joined by “and” are separate entries in the source; they are usually repeats but may differ in a detail not shown here. Equal values may be shown once.
# Columns and labels:
# [1] = target: Gamma-aminobutyric acid receptor subunit alpha-1 (Rattus norvegicus, UniProt P62813)
# [2] = target: T1, Gamma-aminobutyric acid receptor subunit alpha-1 (Homo sapiens, UniProt P14867)
# T1 sequence (P14867 whole entry): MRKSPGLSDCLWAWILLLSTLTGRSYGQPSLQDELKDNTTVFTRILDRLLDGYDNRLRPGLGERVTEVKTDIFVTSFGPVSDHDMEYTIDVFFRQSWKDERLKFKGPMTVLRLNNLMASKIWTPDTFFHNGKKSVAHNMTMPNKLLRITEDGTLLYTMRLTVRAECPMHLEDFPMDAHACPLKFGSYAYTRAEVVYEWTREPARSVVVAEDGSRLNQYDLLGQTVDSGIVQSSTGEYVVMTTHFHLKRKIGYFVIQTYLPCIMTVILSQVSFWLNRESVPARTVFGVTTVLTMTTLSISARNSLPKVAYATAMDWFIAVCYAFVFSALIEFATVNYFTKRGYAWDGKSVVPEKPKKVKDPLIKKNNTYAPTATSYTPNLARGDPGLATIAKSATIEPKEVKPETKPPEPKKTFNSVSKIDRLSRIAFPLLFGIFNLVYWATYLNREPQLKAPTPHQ
# Gamma-aminobutyric acid receptor subunit alpha-1 (Rattus norvegicus, UniProt P62813), sequence (P62813 whole entry): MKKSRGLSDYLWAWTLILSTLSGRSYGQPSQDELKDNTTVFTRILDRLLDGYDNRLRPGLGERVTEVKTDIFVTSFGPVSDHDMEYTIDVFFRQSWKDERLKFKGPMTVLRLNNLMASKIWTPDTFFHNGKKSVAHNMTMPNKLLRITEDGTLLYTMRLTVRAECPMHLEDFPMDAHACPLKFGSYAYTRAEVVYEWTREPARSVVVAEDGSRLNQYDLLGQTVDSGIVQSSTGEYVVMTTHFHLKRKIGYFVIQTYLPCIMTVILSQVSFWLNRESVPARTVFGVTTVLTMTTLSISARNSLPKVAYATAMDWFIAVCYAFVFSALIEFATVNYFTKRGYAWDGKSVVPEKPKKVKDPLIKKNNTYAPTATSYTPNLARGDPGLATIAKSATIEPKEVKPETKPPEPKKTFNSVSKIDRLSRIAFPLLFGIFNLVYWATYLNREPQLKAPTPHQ
SMILES,Ki [1],Ki [2]
"O=C1CN=C(c2ccccc2Cl)c2cc([N+](=O)[O-])ccc2N1 [5-(2-chlorophenyl)-7-nitro-1,3-dihydro-2H-1,4-benzodiazepin-2-one]",> 10000 nM,> 10000 nM
CN1C(=O)CN=C(c2ccc(Cl)cc2)c2cc(Cl)ccc21 [Ro5-4864],–,750 nM
CC[C@@H](C)N(C)C(=O)c1cc2ccccc2c(-c2ccccc2Cl)n1 [PK 11195],18 nM and 3 nM and 4 nM,8 nM and 5 nM

# — BindingDB's records for doi:10.1016/0024-3205(91)90562-p (Technion-Israel Institute of Technology, 1991)
